# Data reported in article PMC3338619, “Ligand Binding Study of Human PEBP1/RKIP: Interaction with Nucleotides and Raf-1 Peptides Evidenced by NMR and Mass Spectrometry” (PLoS ONE, 2012).
# What was measured:
# hPEBP1 [1] = target: T1, hPEBP1 (Homo sapiens, UniProt P30086); assay: Native mass spectrometry KD determination (bound protein fraction); format: binding; conditions: ammonium bicarbonate 20 mM pH 7.4/37°C, no NaCl; read-out: MS KD
# T1 construct: all residues except Met1, Val3, Asp35, Gln45, Lys47 and Lys187 (total residues: 187;); made in house; host or cells: E. coli BL21 (DE3), pET31b
# T1 sequence (P30086 whole entry): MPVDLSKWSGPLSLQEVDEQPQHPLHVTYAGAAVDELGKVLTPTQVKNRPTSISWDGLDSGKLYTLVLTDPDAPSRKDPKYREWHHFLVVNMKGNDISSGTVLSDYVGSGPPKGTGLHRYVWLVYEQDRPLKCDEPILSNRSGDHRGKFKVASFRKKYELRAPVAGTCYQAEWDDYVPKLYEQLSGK
# Experimental: Non-labeled recombinant hPEBP1 purified as previously described was used for mass spectrometry analysis. To prevent Na^+ adduct formation, the commercial GTP and FMN nucleotides used in native MS were desalted. For this purpose, a protocol derived from the RNA-desalting procedure of Limbach et al. (1995) was set up.
# All MS measurements were performed in an ESI-ion trap model Esquire HCT or Ultra HCT PTM Discovery (Bruker, Bremen, Germany), or in a maXis ESI-UHR-Qq-TOF (Bruker). Complexes were formed by incubating hPEBP1 with a range of ligand concentrations in ammonium bicarbonate 20 mM/formic acid buffer, pH 7.4 at 37°C or in ammonium acetate 20 mM, pH 6.6 at 20°C. After incubation, samples were treated with a Zeba micro gel filtration device with a 7 kDa cut-off (Thermo Scientific, Waltham, MA) prior to MS measurement, or analyzed directly in MS. The KD was determined by measuring the bound protein fraction by native MS. Details of the development of the native MS method for KD determination are described in the work of Jaquillard et al. (in press).
# hPEBP1 [2] = target: T1, hPEBP1; assay: 15N-1H HSQC NMR titration of ligands with hPEBP1 (KD from CSP fitting); format: binding
# Experimental: The interactions between hPEBP1 100–270 µM and the four selected ligands were investigated by ^15N-^1H heteronuclear single quantum coherence (HSQC) NMR experiments with a sensitivity enhancement and gradient selected coherence. ^1H, ^15N HSQC spectra were recorded at 20 or 30°C on a Bruker 500 MHz or a Varian Inova 600 MHz spectrometer. Two experimental sets of conditions were tested: MES 10 mM pH 6.5 at 20°C, and HEPES 10 mM, NaCl 100 mM pH 7.5 at 30°C.
# In the simple case of protein-ligand interactions, the free and the bound states are observed during the titration. The interpretation of an NMR spectrum, such as an HSQC, depends on the rate of exchange between the bound and the free forms. Three different cases can be observed. If the complex rate of dissociation is very slow, two separate resonances are observed at the positions corresponding to the chemical shifts characteristic of the two states (free and bound). During the titration, the intensity of the free resonance decreases while the bound resonance one appears and goes up. This regime corresponds to slow chemical exchange on the NMR time scale. If the complex rate of dissociation is very fast, only a single resonance is observed, whose position is the average of the chemical shifts of the two states, weighted by their relative populations. In this case, Chemical Shift Perturbations (CSP) are observed, i.e. the chemical shift evolves as the ligand concentration increases. This regime corresponds to fast exchange on the NMR time scale, and is typical for weaker affinity complexes. In the intermediate chemical exchange case, in addition to CSP, complex changes will affect the line shape that results in the observation of very broad signals with low intensity.
# In the fast exchange regime, CSP can be measured from ^15N-HSQC spectra using the equation: [drawing 1] (1) with δ being the chemical shift in ppm.
# A threshold value was estimated in order to determine significant CSP. In a first step, all the CSP are considered and the average (<CSP>) plus two times the standard deviation (σ) is calculated. Then, the highest CSP (CSP≥<CSP>+2σ) are removed from the data and new average and new standard deviation calculated. The operation is repeated until the convergence is reached.
# Once the residues involved in the binding were selected, the experimental data were fitted with the quadratic equation 2 using SigmaPlot 9.0 in order to obtain the dissociation constant value (KD): [drawing 2] (2) where [P]0 and [L] are the total protein and ligand concentrations, respectively. A KD value was estimated for each residue involved in the binding, and then an average was calculated.
# rPEBP1 = tested on: rPEBP1; parameters: method as in PMID 20463977; conditions: pH 7.4/NaCl 100 mM/30°C, 130 mM GTP for 75 µM rPEBP1; cited from earlier work
# [3] = HEPES 10 mM pH 7.5/NaCl 100 mM/30°C (near physiological conditions)
Kd (hPEBP1 [1]) [µM],"Kd (hPEBP1 [2]; HEPES 10 mM pH 7.5/20°C, from CSP data of 9 residues in fast exchange) [µM]",Kd (hPEBP1 [2]; [3]) [µM],Kd (hPEBP1 [2]; MES 10 mM pH 6.5/20°C) [µM],SMILES,chemical shift perturbations for rPEBP1 (rPEBP1)
5 ± 4,14 ± 11,252 ± 84,14 ± 9,"Cc1cc2nc3c(=O)[nH]c(=O)nc-3n(C[C@H](O)[C@H](O)[C@H](O)COP(=O)(O)O)c2cc1C [FMN, flavin mononucleotide]",
89 ± 48,,3420 ± 1970,669 ± 140,"Nc1nc2c(ncn2[C@@H]2O[C@H](COP(=O)(O)OP(=O)(O)OP(=O)(O)O)[C@@H](O)[C@H]2O)c(=O)[nH]1 [GTP, Guanosine triphosphate]",did not cause significant chemical shift perturbations
,,173 ± 19,,"O=C1N[C@@H](Cc2ccccc2)CO1 [locostatin precursor, (S)-4-benzyl-2-oxazolidinone]",
